For two compounds, Ratio results are on record in ChEMBL document CHEMBL1155587, “Spasmolytic constituents from Eucalyptus camaldulensis var. obtusa leaves” (2000).

Test [1] relates to Jejunum. The test can be described thus: Spasmolytic activity in rabbit jejunum assessed as relaxation of K+-induced muscle contraction at 30 ug/ml relative to calcium. In kind it is functional, Oryctolagus cuniculus.
Test [2] has as its system Jejunum. The test is described as follows: Spasmolytic activity in rabbit jejunum assessed as relaxation of K+-induced muscle contraction at 10 ug/ml relative to calcium. The class given is functional, Oryctolagus cuniculus.

As for `CC(=O)O[C@H]1CC[C@]2(C)[C@H]3C=C[C@]45OC(=O)[C@@]6(CC[C@@H](C)[C@H](C)[C@H]64)CC[C@@]5(C)[C@]3(C)CC[C@H]2C1(C)C`, the figures for the Ratio in the test with Jejunum [1] and with Jejunum [2] were 17.51 and 6.2, respectively.

Consider `C[C@H]1[C@H](C)CC[C@@]23CC[C@]4(C)[C@@](C=C[C@@H]5[C@@]6(C)CC[C@H](OC=O)C(C)(C)[C@@H]6CC[C@]54C)(OC2=O)[C@H]13` [CAMALDULIN], for which the results for the Ratio with Jejunum [1] and with Jejunum [2] were 3.47 and 2.03, respectively.
